The results in this text go back to US11447504B2, “Macrocyclic chlorine substituted indole derivatives” (Bayer Aktiengesellschaft, priority 2017, dated 2022).

The test system of data set [1] is SUDHL10. Put plainly: Induction of cytotoxicity (Assay 6), SUDHL10.
For data set [2], the system named is SUDHL5. Put plainly: Antiproliferation assay 7, SUDHL5. Type of data set: cell-based. To be noted: SUDHL5 cells, CellTiter-Glo, read-out: Antiproli SUDHL5 IC50 (median). As for the experimental part: (§1) Assessment of the Anti-Proliferative Effect of Compounds in Different Cell Lines
(§2) The impact of compounds on the proliferation of different cell lines was assessed using the CellTiter-Glo® Luminescent Cell Viability reagent from Promega (G7573).
(§3) In parallel, cells were plated in a reference (day 0) plate for time zero determination.
(§4) Rim wells were excluded. The cells were incubated for 72 hours in a humidified incubator at 37° C. The day 0 plate was measured by adding 30 μL/well of CTG solution (CellTiter-Glo® Luminescent Cell Viability reagent, Promega G7573) to time zero wells in the reference plate followed by a 10 minutes incubation and luminescence reading at 0.1 ms. using the PHERAstar FS microplate reader (BMG Labtech).
(§5) After 72 hours incubation, the treated plates were measured in the same way as the day 0 plate mentioned above.

The subject of data set [3] is SUDHL5. Put plainly: Induction of cytotoxicity (Assay 6), SUDHL5.
Data set [4] concerns AMO-1. Put plainly: Antiproliferation assay 7, AMO-1. Type of data set: cell-based. To be noted: AMO-1 cells, CellTiter-Glo, read-out: Antiproli AMO-1 IC50 median. The protocol: as §1, §2, §3, §4, §5
In general terms: ATP-based viability assays read luminescence as a measure of living cells.

The subject of data set [5] is SUDHL5. Put plainly: Induction of caspase-3/7 activity (Assay 4), SUDHL5. Type of data set: cell-based. The note with it: SUDHL5 cells. As for the experimental part:
(§6) Induction of Caspase-3/7 Activity Upon Treatment of Cells with Selected Compounds
The BH3-domain of MCL-1 sequesters pro-apoptotic proteins, thereby inhibiting apoptosis. In contrast, MCL-1 inhibitors are expected to antagonize this effect leading to an increase in apoptosis, which can be determined by measuring the activity of caspase-3/7.
(§7) The activity of caspase-3/7 was determined in DLBCL (Diffuse large B-cell lymphoma) cell lines (SUDHL5 and SUDHL10) upon treatment with different compounds, using the Caspase-Glo®3/7 reagent from Promega (G8092).
(§8) Rim wells were excluded. The cells were incubated for 3 hours in a humidified incubator at 37° C.
(§9) For the evaluation of the results, the background measured with “medium-only” was subtracted from all other values.

For data set [6], the system named is SUDHL10. The data set is described as follows: Induction of caspase-3/7 activity (Assay 4), SUDHL10. It is filed as cell-based. The note with it: SUDHL10 cells. The protocol:
as §6
In contrast, MCL-1 inhibitors are expected to antagonize this effect leading to an increase in apoptosis, which can be determined by measuring the activity of caspase-3/7.
as §7, §8, §9

For data set [7], the system named is MV-4-11. The data set is described as follows: Antiproliferation assay 7, MV-4-11. To be noted: MV-4-11 cells, CellTiter-Glo, read-out: Antiproli MV-4-11 IC50 median. It is filed as cell-based. The protocol: as §1, §2, §3, §4, §5
Where [8] appears, read: Homo sapiens, SU-DHL10, 5 h, read-out: Cytotox SUDHL10 IC50 (median), SUDHL10 cells, 5 hours, CellTiter-Glo.
Where [9] appears, read: Homo sapiens, SU-DHL-5, 5 h, read-out: Cytotox SUDHL5 IC50 (median), SUDHL5 cells, 5 hours, CellTiter-Glo.
Setting [10] is: Homo sapiens, SU-DHL-5, 3 h, Caspase-Glo 3/7, read-out: Caspase SUDHL5 EC50 (median).
Where [11] appears, read: Homo sapiens, SU-DHL10, 3 h, Caspase-Glo 3/7, read-out: Caspase SUDHL10 EC50 (median).
Setting [12] is: read-out: Cytotox SUDHL10 IC50 (median), SUDHL10 cells, 5 hours, CellTiter-Glo.
Setting [13] is: read-out: Cytotox SUDHL5 IC50 (median), SUDHL5 cells, 5 hours, CellTiter-Glo.
Where [14] appears, read: 3 hours, Caspase-Glo 3/7, read-out: Caspase SUDHL5 EC50 (median).
Where [15] appears, read: 3 hours, Caspase-Glo 3/7, read-out: Caspase SUDHL10 EC50 (median).

Where a name gives a salt, the structure may show the parent alone. Read-outs that look alike come from different tables or passages of the source.

As for `CCc1c2c(nn1C)COCCCCn1c(C(=O)O)c(CCCOc3cccc4cc(F)ccc34)c3ccc(Cl)c-2c31` (racemic) [Example 36, (rac)-4-chloro-3-ethyl-7-{3-[(6-fluoronaphthalen-1-yl)oxy]propyl}-2-methyl-2,10,11,12,13,15-hexahydropyrazolo[4′,3′:9,10][1,6]oxazacycloundecino[8,7,6-hi]indole-8-carboxylic Acid], the half-inhibitory concentration (IC50) in data set [1] (setting [8]) worked out at 640 nM; in data set [2] (Homo sapiens, SU-DHL-5, 72 h), 340 nM; in data set [3] (setting [9]) it was 300 nM; in data set [4] (Homo sapiens, AMO1, 72 h) it was 286 nM; in data set [7] (Homo sapiens, MV4-11, 72 h), 1010 nM. Moreover, the figures for the EC50 in data set [5] (setting [10]) and in data set [6] (setting [11]) were 300 nM and 450 nM, respectively.
With `CCc1nn(C)c2c1-c1c(Cl)ccc3c(CCCOc4cccc5cc(F)ccc45)c(C(=O)O)n(c13)CCCCN(C)C2` (racemic) [Example 39, (rac)-4-chloro-3-ethyl-7-{3-[(6-fluoronaphthalen-1-yl)oxy]propyl}-1,14-dimethyl-10,11,12,13,14,15-hexahydro-1H-pyrazolo[3′,4′:8,9][1,6]diazacycloundecino[10,11,1-hi]indole-8-carboxylic Acid], the concentration for half-maximal inhibition (IC50) in data set [1] (setting [8]) worked out at 410 nM; in data set [2] (Homo sapiens, SU-DHL-5, 72 h) it was 200 nM; in data set [3] (setting [9]) it was 230 nM; in data set [4] (Homo sapiens, AMO1, 72 h), 359 nM; in data set [7] (Homo sapiens, MV4-11, 72 h) it was 442 nM. In addition, the EC50 stood at 200 nM in data set [5] (setting [10]) and 390 nM in data set [6] (setting [11]).
`CCc1nn(CCN2CCOCC2)c2c1-c1c(Cl)ccc3c(CCCOc4cccc5ccccc45)c(C(=O)O)n(c13)C/C=C\CN(C)C2` (racemic) [Example 42, (rac)-(11Z)-4-chloro-3-ethyl-14-methyl-1-[2-(morpholin-4-yl)ethyl]-7-{3-[(naphthalen-1-yl)oxy]-propyl}-10,13,14,15-tetrahydro-1H-pyrazolo[3′,4′:8,9][1,6]diazacycloundecino[10,11,1-hi]indole-8-carboxylic Acid]: the 50% inhibitory concentration (IC50) turned out to be 1600 nM in data set [1] (setting [8]); 220 nM in data set [2] (Homo sapiens, SU-DHL-5, 72 h); 600 nM in data set [3] (setting [9]); 1380 nM in data set [4] (Homo sapiens, AMO1, 72 h); 975 nM in data set [7] (Homo sapiens, MV4-11, 72 h). Besides, the values for the EC50 in data set [5] (setting [10]) and in data set [6] (setting [11]) were 540 nM and 1300 nM, respectively.
For the molecule `CCc1nn(CCN2CCOCC2)c2c1-c1c(Cl)ccc3c(CCCOc4cccc5ccccc45)c(C(=O)O)n(c13)CCCCN(C)C2` (racemic) [Example 45, (rac)-4-chloro-3-ethyl-14-methyl-1-[2-(morpholin-4-yl)ethyl]-7-{3-[(naphthalen-1-yl)oxy]propyl}-10,11,12,13,14,15-hexahydro-1H-pyrazolo[3′,4′:8,9][1,6]diazacycloundecino[10,11,1-hi]indole-8-carboxylic Acid], the IC50 in data set [1] (setting [8]) came to 750 nM; in data set [2] (Homo sapiens, SU-DHL-5, 72 h), 530 nM; in data set [3] (setting [9]), 400 nM; in data set [4] (Homo sapiens, AMO1, 72 h), 593 nM; in data set [7] (Homo sapiens, MV4-11, 72 h), 628 nM. Further, the EC50 stood at 290 nM in data set [5] (setting [10]) and 460 nM in data set [6] (setting [11]).
As for `CCc1c2c(nn1C)CCCCCCn1c(C(=O)O)c(CCCOc3cccc4ccccc34)c3ccc(Cl)c-2c31` (racemic) [Example 51, (rac)-4-chloro-3-ethyl-2-methyl-7-{3-[(naphthalen-1-yl)oxy]propyl}-10,11,12,13,14,15-hexahydro-2H-pyrazolo[4′,3′:4,5]azacycloundecino[3,2,1-hi]indole-8-carboxylic Acid], the 50% inhibitory concentration (IC50) stood at 2000 nM in data set [1] (setting [8]); 1600 nM in data set [2] (Homo sapiens, SU-DHL-5, 72 h); 840 nM in data set [3] (setting [9]); 2150 nM in data set [4] (Homo sapiens, AMO1, 72 h); 1710 nM in data set [7] (Homo sapiens, MV4-11, 72 h). The EC50 in data set [5] (setting [10]) came to 800 nM; in data set [6] (setting [11]), 1900 nM.
On to `CCc1c2c(nn1C)CN(C)CCCCn1c(C(=O)O)c(CCCOc3cccc4cc(F)ccc34)c3ccc(Cl)c-2c31` (single isomer, unassigned; enantiomer 2) [Example 7, 4-chloro-3-ethyl-7-{3-[(6-fluoronaphthalen-1-yl)oxy]propyl}-2,14-dimethyl-10,11,12,13,14,15-hexahydro-2H-pyrazolo[3′,4′:8,9][1,6]diazacycloundecino[10,11,1-hi]indole-8-carboxylic Acid (Enantiomer 2)], for which the half-inhibitory concentration (IC50) in data set [1] (setting [12]) stood at 8300 nM; in data set [2] (72 hours), 4200 nM; in data set [3] (setting [13]), 7100 nM; in data set [4] (72 hours), 11100 nM; in data set [7] (72 hours), 8630 nM. For the same molecule, the values for the EC50 in data set [5] (setting [14]) and in data set [6] (setting [15]) were 11000 nM and 16000 nM, respectively.
`Cc1c2c(nn1C)COCCCCn1c(C(=O)O)c(CCCOc3cccc4ccccc34)c3ccc(Cl)c-2c31` (single isomer, unassigned; enantiomer 2) [Example 27, 4-chloro-2,3-dimethyl-7-[3-(naphthalen-1-yloxy)propyl]-2,10,11,12,13,15-hexahydropyrazolo-[4′,3′:9,10][1,6]oxazacycloundecino[8,7,6-hi]indole-8-carboxylic acid-N-ethylethanamine Salt (Enantiomer 2)]: the IC50 amounted to 20000 nM in data set [1] (setting [12]), 7800 nM in data set [2] (72 hours), 10000 nM in data set [3] (setting [13]) and 16100 nM in data set [7] (72 hours). Besides, the EC50 was 16000 nM in data set [5] (setting [14]) and 23000 nM in data set [6] (setting [15]).
Consider `CCc1c2c(nn1C)COCCCCn1c(C(=O)O)c(CCCOc3cccc4cc(F)ccc34)c3ccc(Cl)c-2c31` (single isomer, unassigned; enantiomer 2) [Example 38, (−)-4-chloro-3-ethyl-7-{3-[(6-fluoronaphthalen-1-yl)oxy]propyl}-2-methyl-2,10,11,12,13,15-hexahydropyrazolo[4′,3′:9,10][1,6]oxazacycloundecino[8,7,6-hi]indole-8-carboxylic acid-N-ethylethanamine Salt (Enantiomer 2)], for which the concentration for half-maximal inhibition (IC50) in data set [1] (setting [12]) amounted to 14000 nM; in data set [2] (72 hours), 1800 nM; in data set [3] (setting [13]), 4300 nM; in data set [4] (72 hours), 11500 nM; in data set [7] (72 hours), 13400 nM. Further, in data set [6] (setting [15]), the EC50 came to 13000 nM.
For `CCc1nn(C)c2c1-c1c(Cl)ccc3c(CCCOc4cccc5cc(F)ccc45)c(C(=O)O)n(c13)CCCCN(C)C2` (single isomer, unassigned; enantiomer 2) [Example 41, 4-chloro-3-ethyl-7-{3-[(6-fluoronaphthalen-1-yl)oxy]propyl}-1,14-dimethyl-10,11,12,13,14,15-hexahydro-1H-pyrazolo[3′,4′:8,9][1,6]diazacycloundecino[10,11,1-hi]indole-8-carboxylic Acid (Enantiomer 2)], the half-maximal inhibitory concentration (IC50) in data set [1] (setting [12]) turned out to be 12000 nM; in data set [2] (72 hours), 2700 nM; in data set [3] (setting [13]) it was 4000 nM; in data set [4] (72 hours) it was 14900 nM; in data set [7] (72 hours), 4890 nM. Besides, the EC50 in data set [5] (setting [14]) is 2800 nM; in data set [6] (setting [15]), 9400 nM.
Consider `CCc1nn(CCN2CCOCC2)c2c1-c1c(Cl)ccc3c(CCCOc4cccc5ccccc45)c(C(=O)O)n(c13)CCCCN(C)C2` (single isomer, unassigned; enantiomer 2) [Example 47, 4-chloro-3-ethyl-14-methyl-1-[2-(morpholin-4-yl)ethyl]-7-{3-[(naphthalen-1-yl)oxy]propyl}-10,11,12,13,14,15-hexahydro-1H-pyrazolo[3′,4′:8,9][1,6]diazacycloundecino[10,11,1-hi]indole-8-carboxylic Acid (Enantiomer 2)], for which the concentration for half-maximal inhibition (IC50) in data set [1] (setting [12]) was 17000 nM; in data set [2] (72 hours) it was 8000 nM; in data set [3] (setting [13]), 10000 nM; in data set [7] (72 hours), 5650 nM. Besides, the EC50 in data set [5] (setting [14]) is 11000 nM; in data set [6] (setting [15]), 22000 nM.

What is called IC50 is the concentration that gives 50% inhibition. As usually defined, the EC50 is the midpoint of the concentration-response curve.
